Assay results reported in patent publication US20140066431A1, “Benzoxazepines as Inhibitors of PI3K/mTOR and Methods of Their Use and Manufacture” (Exelixis, Inc., priority 2010, published 2014).

What was measured:
[1] = molecular target: mTOR/GbL/Raptor (mTORC1) (Homo sapiens, UniProt P42345); test: mTOR/GbL/Raptor (mTORC1) ELISA assay; format: biochemical; conditions: 0.2 nM mTORC1, 10 μM ATP, 50 nM 4E-BP1
Procedure: The measurement of mTORC1 enzyme activity was performed in an ELISA assay format following the phosphorylation of 4E-BP1 protein. All experiments were performed in the 384-well format. Generally, 0.5 μL DMSO containing varying concentrations of the test compound was mixed with 15 μL enzyme solution. Kinase reactions were initiated with the addition of 15 μL of substrates-containing solution. The assay conditions were as follows; 0.2 nM mTORC1, 10 μM ATP and 50 nM NHis-tagged 4E-BP1 in 20 mM Hepes, pH 7.2, 1 mM DTT, 50 mM NaCl, 10 mM MnCl2, 0.02 mg/mL BSA, 0.01% CHAPS, 50 mM β-glycerophosphate. Following an incubation of 120 minutes at ambient temperature, 20 μL of the reaction volume was transferred to a Ni-Chelate-coated 384-well plate. The binding step of the 4E-BP1 protein proceeded for 60 minutes, followed by washing 4 times each with 50 μL of Tris-buffered saline solution (TBS). Anti-phospho-4E-BP1 rabbit-IgG (20 μL, 1:5000) in 5% BSA-TBST (0.2% Tween-20 in TBS) was added and further incubated for 60 minutes. Incubation with a secondary HRP-tagged anti-IgG was similarly performed after washing off the primary antibody (4 washes of 50 μL). Following the final wash step with TBST, 20 μL of SuperSignal ELISA Femto (Pierce Biotechnology) was added and the luminescence measured using an EnVision plate reader.

[2] = molecular target: PI3Kα (Homo sapiens, UniProt P42336); test: PI3K biochemical assay (ATP consumption, luciferase-luciferin); conditions: 1.5 nM enzyme, 1 μM ATP, 10 μM PIP2
PI3Kα, sequence (P42336 whole entry): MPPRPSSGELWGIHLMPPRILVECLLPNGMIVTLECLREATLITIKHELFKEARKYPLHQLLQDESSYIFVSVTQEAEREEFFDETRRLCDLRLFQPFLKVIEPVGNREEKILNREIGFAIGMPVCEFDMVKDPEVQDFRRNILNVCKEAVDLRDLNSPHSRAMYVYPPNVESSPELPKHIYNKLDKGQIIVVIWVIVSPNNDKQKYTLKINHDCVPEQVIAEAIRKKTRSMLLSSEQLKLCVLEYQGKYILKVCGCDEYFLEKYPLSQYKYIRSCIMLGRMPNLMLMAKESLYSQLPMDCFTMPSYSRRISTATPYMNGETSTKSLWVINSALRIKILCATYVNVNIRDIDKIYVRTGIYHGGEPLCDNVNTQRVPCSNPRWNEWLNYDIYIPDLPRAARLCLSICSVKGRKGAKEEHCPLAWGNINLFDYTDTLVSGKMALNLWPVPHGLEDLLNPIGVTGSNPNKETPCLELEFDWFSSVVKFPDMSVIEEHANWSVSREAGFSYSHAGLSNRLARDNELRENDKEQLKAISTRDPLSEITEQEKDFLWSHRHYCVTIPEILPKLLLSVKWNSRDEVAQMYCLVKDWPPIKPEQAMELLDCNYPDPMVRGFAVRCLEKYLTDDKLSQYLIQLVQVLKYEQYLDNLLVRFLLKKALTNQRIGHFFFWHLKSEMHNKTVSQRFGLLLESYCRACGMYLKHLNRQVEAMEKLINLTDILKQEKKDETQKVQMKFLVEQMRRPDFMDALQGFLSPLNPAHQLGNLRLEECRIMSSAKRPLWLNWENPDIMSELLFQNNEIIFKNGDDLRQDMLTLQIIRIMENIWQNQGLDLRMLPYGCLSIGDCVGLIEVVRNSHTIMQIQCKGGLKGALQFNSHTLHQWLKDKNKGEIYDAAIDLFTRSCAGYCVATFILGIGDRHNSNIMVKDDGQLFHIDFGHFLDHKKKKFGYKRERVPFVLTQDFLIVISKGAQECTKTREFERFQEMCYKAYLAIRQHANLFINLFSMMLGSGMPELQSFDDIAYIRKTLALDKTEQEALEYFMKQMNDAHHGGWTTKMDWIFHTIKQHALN
PI3Kα, sequence (P27986 whole entry partner): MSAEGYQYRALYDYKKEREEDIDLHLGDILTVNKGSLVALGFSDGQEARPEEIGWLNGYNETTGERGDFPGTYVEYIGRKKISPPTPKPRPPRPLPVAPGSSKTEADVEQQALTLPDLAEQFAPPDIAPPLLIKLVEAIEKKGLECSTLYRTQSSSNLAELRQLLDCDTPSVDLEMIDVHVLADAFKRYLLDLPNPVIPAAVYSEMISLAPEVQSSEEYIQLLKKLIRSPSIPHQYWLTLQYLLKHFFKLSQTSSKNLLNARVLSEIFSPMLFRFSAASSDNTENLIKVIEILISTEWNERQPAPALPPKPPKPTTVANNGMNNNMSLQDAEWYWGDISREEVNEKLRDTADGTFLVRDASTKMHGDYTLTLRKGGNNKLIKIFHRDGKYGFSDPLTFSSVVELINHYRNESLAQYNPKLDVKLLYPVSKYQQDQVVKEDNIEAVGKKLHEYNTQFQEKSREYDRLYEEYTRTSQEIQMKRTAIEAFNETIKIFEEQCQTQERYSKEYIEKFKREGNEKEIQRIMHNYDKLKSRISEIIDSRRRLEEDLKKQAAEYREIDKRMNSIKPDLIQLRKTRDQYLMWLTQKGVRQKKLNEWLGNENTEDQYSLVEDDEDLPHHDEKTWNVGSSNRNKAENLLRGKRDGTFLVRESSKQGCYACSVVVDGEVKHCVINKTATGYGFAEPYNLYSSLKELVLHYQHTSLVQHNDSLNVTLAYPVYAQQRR
Procedure: PI3Kα activity is measured as the percent of ATP consumed following the kinase reaction using luciferase-luciferin-coupled chemiluminescence. Reactions were conducted in 384-well white, medium binding microtiter plates (Greiner). Kinase reactions were initiated by combining test compounds, ATP, substrate (PIP2), and kinase in a 20 μL volume in a buffer solution. The standard PI3Kalpha assay buffer is composed 50 mM Tris, pH 7.5, 1 mM EGTA, 10 mM MgCl2, 1 mM DTT and 0.03% CHAPS. The standard assay concentrations for enzyme, ATP, and substrate are 1.5 nM, 1 μM, and 10 μM, respectively. The reaction mixture was incubated at ambient temperature for approximately 2 h. Following the kinase reaction, a 10 μL aliquot of luciferase-luciferin mix (Promega Kinase-Glo) was added and the chemiluminescence signal measured using a Victor2 plate reader (Perkin Elmer). Total ATP consumption was limited to 40-60% and IC50 values of control compounds correlate well with literature references. Substituting PI3Kα with PI3Kβ, PI3Kγ, or PI3Kδ, the inhibitory activity of the compounds for the other isoforms of I3K were measured.

With `Cc1nc2ccc(-c3ccc4c(c3)CN(C(=O)N3CC[C@@H](O)C3)CCO4)cc2[nH]1` [compound 78, (3R)-1-{[7-(2-methyl-1H-benzimidazol-6-yl)-2,3-dihydro-1,4-benzoxazepin-4(5H)-yl]carbonyl}pyrrolidin-3-ol] the “IC50 (mTORC1 ELISA)” value [1] was “not active”.
In the case of `CC1CCN(C(=O)N2CCOc3ccc(-c4cc(NCc5ccccc5)[nH]n4)cc3C2)CC1` [compound 9, 3-{4-[(4-methylpiperidin-1-yl)carbonyl]-2,3,4,5-tetrahydro-1,4-benzoxazepin-7-yl}-N-(phenylmethyl)-1H-pyrazol-5-amine], the “IC50 (mTORC1 ELISA)” value [1] is reported as “not active”.
`CC(=O)c1ccc(N2CCN(C(=O)N3CCOc4ccc(-c5ccc6nc(C)[nH]c6c5)cc4C3)CC2)cc1` [compound 169, 1-[4-(4-{[7-(2-methyl-1H-benzimidazol-6-yl)-2,3-dihydro-1,4-benzoxazepin-4(5H)-yl]carbonyl}piperazin-1-yl)phenyl]ethanone] was tested, and the “IC50 (mTORC1 ELISA)” value [1] was “not active”.
With `Cc1nc2ccc(-c3ccc4c(c3)CN(C(=O)N3CCN(c5ccccc5F)CC3)CCO4)cc2[nH]1` [compound 165, 4-{[4-(2-fluorophenyl)piperazin-1-yl]carbonyl}-7-(2-methyl-1H-benzimidazol-6-yl)-2,3,4,5-tetrahydro-1,4-benzoxazepine] the “IC50 (PI3Kα biochemical assay)” value [2] was “not active”.
In the case of `Cc1nc2cc(-c3ccc4c(c3)CN(C(=O)N3CC[C@@](C)(O)C[C@@H]3c3ccccc3)CCO4)ccc2[nH]1` (racemic) [compound 133, (±)-(2R,4R)-4-methyl-1-{[7-(2-methyl-1H-benzimidazol-5-yl)-2,3-dihydro-1,4-benzoxazepin-4(5H)-yl]carbonyl}-2-phenylpiperidin-4-ol], the “IC50 (PI3Kα biochemical assay)” value [2] is reported as “not active”.
With `Cc1nc2ccc(-c3ccc4c(c3)CN(C(=O)N3CCOCC3)CCO4)cc2[nH]1` [compound 132, 7-(2-methyl-1H-benzimidazol-6-yl)-4-(morpholin-4-ylcarbonyl)-2,3,4,5-tetrahydro-1,4-benzoxazepine] the “IC50 (mTORC1 ELISA)” value [1] was “not active”.
`CCC1CC2(CCN(C(=O)N3CCOc4ccc(-c5ccc6nc(C)[nH]c6c5)cc4C3)CC2)CC(=O)N1` (stereo not shown) [compound 155, 4-ethyl-9-{[7-(2-methyl-1H-benzimidazol-6-yl)-2,3-dihydro-1,4-benzoxazepin-4(5H)-yl]carbonyl}-3,9-diazaspiro[5.5]undecan-2-one] was tested, and the “IC50 (PI3Kα biochemical assay)” value [2] was “not active”.
With `Cc1nc2ccc(-c3ccc4c(c3)CN(C(=O)N3CCN(C(=O)c5ccco5)CC3)CCO4)cc2[nH]1` [compound 158, 4-{[4-(furan-2-ylcarbonyl)piperazin-1-yl]carbonyl}-7-(2-methyl-1H-benzimidazol-6-yl)-2,3,4,5-tetrahydro-1,4-benzoxazepine] the “IC50 (mTORC1 ELISA)” value [1] was “not active”.
With `Cc1nc2ccc(-c3ccc4c(c3)CN(C(=O)N3CCC(O)(C(F)(F)F)CC3c3ccc(F)c(F)c3)CCO4)cc2[nH]1` (stereo not shown) [compound 119, 2-(3,4-difluorophenyl)-1-{[7-(2-methyl-1H-benzimidazol-6-yl)-2,3-dihydro-1,4-benzoxazepin-4(5H)-yl]carbonyl}-4-(trifluoromethyl)piperidin-4-ol] the “IC50 (mTORC1 ELISA)” value [1] was “not active”.
In the case of `CC1CCN(C(=O)N2CCOc3ccc(-c4cnc(N)cn4)cc3C2)CC1` [compound 4, 5-{4-[(4-methylpiperidin-1-yl)carbonyl]-2,3,4,5-tetrahydro-1,4-benzoxazepin-7-yl}pyrazin-2-amine], the “IC50 (PI3Kα biochemical assay)” value [2] is reported as “not active”.
For `Cc1nc2ccc(-c3ccc4c(c3)CN(C(=O)N3CCCCC3c3cc(C(F)(F)F)cc(C(F)(F)F)c3)CCO4)cc2[nH]1` (stereo not shown) [compound 115, 4-({2-[3,5-bis(trifluoromethyl)phenyl]piperidin-1-yl}carbonyl)-7-(2-methyl-1H-benzimidazol-6-yl)-2,3,4,5-tetrahydro-1,4-benzoxazepine], the “IC50 (mTORC1 ELISA)” value [1] was “not active”.
`Cc1nc2ccc(-c3ccc4c(c3)CN(C(=O)N3CCC(O)(c5ccc(C(F)(F)F)cc5)CC3)CCO4)cc2[nH]1` [compound 141, 1-{[7-(2-methyl-1H-benzimidazol-6-yl)-2,3-dihydro-1,4-benzoxazepin-4(5H)-yl]carbonyl}-4-[4-(trifluoromethyl)phenyl]piperidin-4-ol] was tested, and the “IC50 (PI3Kα biochemical assay)” value [2] was “not active”.
`Nc1cnc(-c2ccc3c(c2)CN(C(=O)N2CCC(C(F)(F)F)CC2)CCO3)cn1` [compound 6, 5-(4-{[4-(trifluoromethyl)piperidin-1-yl]carbonyl}-2,3,4,5-tetrahydro-1,4-benzoxazepin-7-yl)pyrazin-2-amine] was tested, and the “IC50 (PI3Kα biochemical assay)” value [2] was “not active”.
For `Cc1nc2ccc(-c3ccc4c(c3)CN(C(=O)N3[C@@H]5CC[C@H]3C[C@@H](N)C5)CCO4)cc2[nH]1` [compound 77, 8-{[7-(2-methyl-1H-benzimidazol-6-yl)-2,3-dihydro-1,4-benzoxazepin-4(5H)-yl]carbonyl}-8-azabicyclo[3.2.1]octan-3-(endo)-amine], the “IC50 (PI3Kα biochemical assay)” value [2] was “not active”.
In the case of `Cc1nc2ccc(-c3ccc4c(c3)CN(C(=O)N3CCCC[C@H]3c3ccccc3)CCO4)cc2[nH]1` [compound 65, 7-(2-methyl-1H-benzimidazol-6-yl)-4-{[(2S)-2-phenylpiperidin-1-yl]carbonyl}-2,3,4,5-tetrahydro-1,4-benzoxazepine], the “IC50 (PI3Kα biochemical assay)” value [2] is reported as “not active”.
With `Cc1nc2ccc(-c3ccc4c(c3)CN(C(=O)N3CCCCC3c3ccc(F)cc3C)CCO4)cc2[nH]1` (stereo not shown) [compound 117, 4-{[2-(4-fluoro-2-methylphenyl)piperidin-1-yl]carbonyl}-7-(2-methyl-1H-benzimidazol-6-yl)-2,3,4,5-tetrahydro-1,4-benzoxazepine] the “IC50 (PI3Kα biochemical assay)” value [2] was “not active”.
For `Cc1nc2ccc(-c3ccc4c(c3)CN(C(=O)N3CCN(C)C(=O)C3)CCO4)cc2[nH]1` [compound 146, 1-methyl-4-{[7-(2-methyl-1H-benzimidazol-6-yl)-2,3-dihydro-1,4-benzoxazepin-4(5H)-yl]carbonyl}piperazin-2-one], the “IC50 (PI3Kα biochemical assay)” value [2] was “not active”.
For `CC1CCN(C(=O)N2CCOc3ccc(-c4ccc(N)nn4)cc3C2)CC1` [compound 1, 6-{4-[(4-methylpiperidin-1-yl)carbonyl]-2,3,4,5-tetrahydro-1,4-benzoxazepin-7-yl}pyridazin-3-amine], the “IC50 (PI3Kα biochemical assay)” value [2] was “not active”.
For `Cc1nc2ccc(-c3ccc4c(c3)CN(C(=O)N3CCCCC3Cc3ccccc3)CCO4)cc2[nH]1` (stereo not shown) [compound 104, 7-(2-methyl-1H-benzimidazol-6-yl)-4-{[2-(phenylmethyl)piperidin-1-yl]carbonyl}-2,3,4,5-tetrahydro-1,4-benzoxazepine], the “IC50 (PI3Kα biochemical assay)” value [2] was “not active”.
In the case of `CC1CCN(C(=O)N2CCOc3ccc(-c4cc(N)[nH]n4)cc3C2)CC1` [compound 10, 3-{4-[(4-methylpiperidin-1-yl)carbonyl]-2,3,4,5-tetrahydro-1,4-benzoxazepin-7-yl}-1H-pyrazol-5-amine], the “IC50 (PI3Kα biochemical assay)” value [2] is reported as “not active”.
With `Cc1nc2ccc(-c3ccc4c(c3)CN(C(=O)NC3[C@H]5C[C@@H]6C[C@@H](C[C@H]3C6)C5)CCO4)cc2[nH]1` (stereo partly drawn) [compound 149, 7-(2-methyl-1H-benzimidazol-6-yl)-N-[(1r,3r,5R,7R)-tricyclo[3.3.1.1~3,7~]dec-2-yl]-2,3-dihydro-1,4-benzoxazepine-4(5H)-carboxamide] the “IC50 (PI3Kα biochemical assay)” value [2] was “not active”.
For `CCCCN(Cc1ccccc1)C(=O)N1CCOc2ccc(-c3ccc4nc(C)[nH]c4c3)cc2C1` [compound 173, N-butyl-7-(2-methyl-1H-benzimidazol-6-yl)-N-(phenylmethyl)-2,3-dihydro-1,4-benzoxazepine-4(5H)-carboxamide], the “IC50 (PI3Kα biochemical assay)” value [2] was “not active”.
In the case of `Cc1nc2ccc(-c3ccc4c(c3)CN(C(=O)N3CCCCC3c3ccccc3C)CCO4)cc2[nH]1` (stereo not shown) [compound 126, 7-(2-methyl-1H-benzimidazol-6-yl)-4-{[2-(2-methylphenyl)piperidin-1-yl]carbonyl}-2,3,4,5-tetrahydro-1,4-benzoxazepine], the “IC50 (PI3Kα biochemical assay)” value [2] is reported as “not active”.
With `Cc1nc2ccc(-c3ccc4c(c3)CN(C(=O)N3CCN(Cc5c(F)cccc5Cl)CC3)CCO4)cc2[nH]1` [compound 152, 4-({4-[(2-chloro-6-fluoropheny)methyl]piperazin-1-yl}carbonyl)-7-(2-methyl-1H-benzimidazol-6-yl)-2,3,4,5-tetrahydro-1,4-benzoxazepine] the “IC50 (PI3Kα biochemical assay)” value [2] was “not active”.
`Cc1nc2ccc(-c3ccc4c(c3)CN(C(=O)N3CCC(Cc5ccccc5)CC3)CCO4)cc2[nH]1` [compound 171] was tested, and the “IC50 (PI3Kα biochemical assay)” value [2] was “not active”.
